pIC50: −log10 of the molar value.
Experiments:
L1210 = experiment: Cytotoxicity against mouse L1210 cells after 48 hrs by microculture tetrazolium assay; assay type: functional, cell-based; conditions: L1210, 48 h
[1] = Cytotoxicity against human KB3-1 cells after 96 hrs by microculture tetrazolium assay; assay type: functional, cell-based; conditions: KB 3-1, 96 h

| SMILES | pIC50 (L1210) | pIC50 [1] |
| --- | --- | --- |
| C=CCOc1cc(OC)c2c(=O)c3ccccc3n(C)c2c1 | 4.87 | 4.98 |
| C=CCOc1cc(OC)c2c(=O)c3cc4ccccc4cc3n(C)c2c1 | 4.48 | 5.43 |
| COc1cc2c(c3c1c(=O)c1ccccc1n3C)C[C@H]([C@@]1(C)CO1)O2 (racemic) |  | 7.22 |
| COc1cc2c(c3c1c(=O)c1cc4ccccc4cc1n3C)C[C@H]([C@@]1(C)CO1)O2 (racemic) | 7.40 | 7.10 |
| COc1cc(OCC2COC(=O)O2)cc2c1c(=O)c1cc3ccccc3cc1n2C (racemic) | 4.73 | 4.63 |
| COc1cc(OCC(COC(C)=O)OC(C)=O)cc2c1c(=O)c1ccccc1n2C (racemic) | 4.39 | 4.42 |
| COc1cc(OCC2CO2)cc2c1c(=O)c1ccccc1n2C (racemic) | 7.05 | 6.92 |
| COc1cc(OCC(O)COC(C)=O)cc2c1c(=O)c1ccccc1n2C (racemic) | 4.49 | 4.65 |
| COc1cc(OCC2COC(=O)O2)cc2c1c(=O)c1ccccc1n2C (racemic) | 4.43 | 4.62 |
| COc1cc(OCC(O)CO)cc2c1c(=O)c1cc3ccccc3cc1n2C (racemic) | 4.10 | 4.19 |
| COc1cc(OCC(COC(C)=O)OC(C)=O)cc2c1c(=O)c1cc3ccccc3cc1n2C (racemic) | 5.51 | 5.10 |
| COc1cc(OCC2CO2)cc2c1c(=O)c1cc3ccccc3cc1n2C (racemic) | 7.52 | 6.70 |
| COc1cc(OCC(O)COC(C)=O)cc2c1c(=O)c1cc3ccccc3cc1n2C (racemic) | 5.21 | 5.24 |
| COc1cc(OCC(O)CO)cc2c1c(=O)c1ccccc1n2C (racemic) | 4.22 | 4.32 |
| COc1cc2c(c3c1c(=O)c1cc4ccccc4cc1n3C)[C@@H](OC(C)=O)[C@@H](OC(C)=O)C(C)(C)O2 (relative stereo) |  | 7.05 |

Source: ChEMBL document CHEMBL1154712, “Synthesis and cytotoxic activity of psorospermin and acronycine analogues in the 3-propyloxy-acridin-9(10H)-one and -benzo[b]acridin-125H-one series” (Eur J Med Chem, 2010)
